Assay results as given in US20250250230A1, “HETEROCYCLIC COMPOUND” (TAKEDA PHARMACEUTICAL COMPANY LIMITED, priority 2022, published 2025).

target: T1, human orexin type 2 receptor (Homo sapiens, UniProt O43614); experiment: Measurement of orexin type 2 receptor agonist activity (calcium fluorescence, Fluo-4 AM, FDSS); assay type: cell-based; conditions: test compound 3 μM; CHO cells expressing human OX2 receptor; DMSO = 0%, orexin A (human) = 100%
T1 construct: expressed in transfected cells
T1 sequence (O43614 1-444): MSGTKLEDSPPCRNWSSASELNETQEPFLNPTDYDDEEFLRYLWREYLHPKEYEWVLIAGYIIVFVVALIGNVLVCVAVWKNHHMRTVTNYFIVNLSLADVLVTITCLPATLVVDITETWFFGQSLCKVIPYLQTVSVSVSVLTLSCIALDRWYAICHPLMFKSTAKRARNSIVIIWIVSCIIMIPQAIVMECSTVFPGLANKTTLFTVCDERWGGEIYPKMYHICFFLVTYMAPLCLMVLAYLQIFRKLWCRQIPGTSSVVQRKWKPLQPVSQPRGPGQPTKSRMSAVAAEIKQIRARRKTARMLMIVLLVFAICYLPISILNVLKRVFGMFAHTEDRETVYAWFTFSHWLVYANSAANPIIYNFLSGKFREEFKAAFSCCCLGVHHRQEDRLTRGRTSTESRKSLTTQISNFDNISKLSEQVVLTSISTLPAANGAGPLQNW
Procedure, shortened: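 Agonist response scaled between vehicle (0%) and human orexin A at 10 nM final (100%), from 2-min kinetic Fluo-4 fluorescence reads. Stable hOX2R CHO-K1 clone, dye-loaded in HBSS/20 mM HEPES/0.1% BSA with 1.25 mM probenecid before compound addition.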

Going from `CN(C)S(=O)(=O)NC[C@@H]1CN(C(=O)[C@@H]2C[C@H]2c2ccccc2-c2c(F)cccc2F)CCO1` [Example 299, N′-({(2S)-4-[(1R,2R)-2-(2′,6′-difluoro[1,1′-biphenyl]-2-yl)cyclopropane-1-carbonyl]morpholin-2-yl}methyl)-N,N-dimethylsulfuric diamide] to `CN(C)S(=O)(=O)N[C@H]1CCCN(C(=O)[C@@H]2C[C@H]2c2ccccc2-c2c(F)cccc2F)C1` [Example 302, N′-{(3S)-1-[(1R,2R)-2-(2′,6′-difluoro[1,1′-biphenyl]-2-yl)cyclopropane-1-carbonyl]piperidin-3-yl}-N,N-dimethylsulfuric diamide], the “OX2R agonist activity (3 μM, %)” value rises from 90% to 97%.

`CCS(=O)(=O)N[C@H]1CCCN(C(=O)[C@@H]2C[C@H]2c2c(F)cccc2-c2c(F)cccc2F)C1` [Example 307, N-{(3S)-1-[(1R,2R)-2-(2′,3,6′-trifluoro[1,1′-biphenyl]-2-yl)cyclopropane-1-carbonyl]piperidin-3-yl}ethanesulfonamide] and `CN(C)S(=O)(=O)N[C@H]1CCCN(C(=O)[C@@H]2C[C@H]2c2c(F)cccc2-c2c(F)cccc2F)C1` [Example 312, N,N-dimethyl-N′-{(3S)-1-[(1R,2R)-2-(2′,3,6′-trifluoro[1,1′-biphenyl]-2-yl)cyclopropane-1-carbonyl]piperidin-3-yl}sulfuric diamide] are the same in “OX2R agonist activity (3 μM, %)” value: 100% for the first, 100% for the second.

First: CN(C)S(=O)(=O)N[C@H]1CCN(C(=O)[C@@H]2C[C@H]2c2c(F)cccc2-c2c(F)cccc2F)C1 [Example 309, N,N-dimethyl-N′-{(3S)-1-[(1R,2R)-2-(2′,3,6′-trifluoro[1,1′-biphenyl]-2-yl)cyclopropane-1-carbonyl]pyrrolidin-3-yl}sulfuric diamide]
Second: CN(C)S(=O)(=O)NC[C@@H]1CCN1C(=O)C1CC1c1c(F)cccc1-c1c(F)cccc1F (stereo partly drawn) [Example 314, N,N-dimethyl-N′-({(2S)-1-[(1R,2R)-2-(2′,3,6′-trifluoro[1,1′-biphenyl]-2-yl)cyclopropane-1-carbonyl]azetidin-2-yl}methyl)sulfuric diamide, or N,N-dimethyl-N′-({(2S)-1-[(1S,2S)-2-(2′,3,6′-trifluoro[1,1′-biphenyl]-2-yl)cyclopropane-1-carbonyl]azetidin-2-yl}methyl)sulfuric diamide]
The “OX2R agonist activity (3 μM, %)” value of the first is lower: 97% for the first, 99% for the second.

Going from `C[C@H]1C[C@H](NS(C)(=O)=O)CN1C(=O)C1(C)CC1c1ccccc1-c1c(F)cccc1F` (stereo partly drawn) [Example 315, N-{(3S,5S)-1-[(1R,2S)-2-(2′,6′-difluoro[1,1′-biphenyl]-2-yl)-1-methylcyclopropane-1-carbonyl]-5-methylpyrrolidin-3-yl}methanesulfonamide, or N-{(3S,5S)-1-[(1S,2R)-2-(2′,6′-difluoro[1,1′-biphenyl]-2-yl)-1-methylcyclopropane-1-carbonyl]-5-methylpyrrolidin-3-yl}methanesulfonamide] to `CC1(C(=O)N2CCC2CNS(C)(=O)=O)CC1c1ccccc1-c1c(F)cccc1F` (stereo not drawn) [Example 327, N-({1-[2-(2′,6′-difluoro[1,1′-biphenyl]-2-yl)-1-methylcyclopropane-1-carbonyl]azetidin-2-yl}methyl)methanesulfonamide optical isomer], the “OX2R agonist activity (3 μM, %)” value rises from 91% to 100%.

`Cc1ccc(C2CC2C(=O)N2CC[C@H](NS(C)(=O)=O)C2)c(-c2c(F)cccc2F)c1` (stereo partly drawn) [Example 318, N-{(3S)-1-[(1R,2R)-2-(2′,6′-difluoro-5-methyl [1,1′-biphenyl]-2-yl)cyclopropane-1-carbonyl]pyrrolidin-3-yl}methanesulfonamide, or N-{(3S)-1-[(1S,2S)-2-(2′,6′-difluoro-5-methyl[1,1′-biphenyl]-2-yl)cyclopropane-1-carbonyl]pyrrolidin-3-yl}methanesulfonamide] and `CNS(=O)(=O)N[C@H]1CCN(C(=O)[C@@H]2C[C@H]2c2ccccc2-c2c(F)cccc2F)C1` [Example 335, N-{(3S)-1-[(1R,2R)-2-(2′,6′-difluoro[1,1′-biphenyl]-2-yl)cyclopropane-1-carbonyl]pyrrolidin-3-yl}-N′-methylsulfuric diamide] are the same in “OX2R agonist activity (3 μM, %)” value: 96% for the first, 96% for the second.

Compared with `CS(=O)(=O)N[C@H]1C[C@H](O)CN(C(=O)[C@@H]2C[C@H]2c2ccccc2-c2c(F)cccc2F)C1` [Example 319, N-{(3S,5S)-1-[(1R,2R)-2-(2′,6′-difluoro[1,1′-biphenyl]-2-yl)cyclopropane-1-carbonyl]-5-hydroxypiperidin-3-yl}methanesulfonamide], `CO[C@@H]1CN(C(=O)[C@@H]2C[C@H]2c2ccccc2-c2c(F)cccc2F)C[C@H]1NS(C)(=O)=O` [Example 323, N-{(3R,4R)-1-[(1R,2R)-2-(2′,6′-difluoro[1,1′-biphenyl]-2-yl)cyclopropane-1-carbonyl]-4-methoxypyrrolidin-3-yl}methanesulfonamide] is lower in “OX2R agonist activity (3 μM, %)” value: 101% for the first, 96% for the second.

`CS(=O)(=O)N[C@H]1CCN(C(=O)C2(F)CC2c2ccccc2-c2c(F)cccc2F)C1` (stereo partly drawn) [Example 324, N-{(3S)-1-[(1R,2R)-2-(2′,6′-difluoro[1,1′-biphenyl]-2-yl)-1-fluorocyclopropane-1-carbonyl]pyrrolidin-3-yl}methanesulfonamide, or N-{(3S)-1-[(1S,2S)-2-(2′,6′-difluoro[1,1′-biphenyl]-2-yl)-1-fluorocyclopropane-1-carbonyl]pyrrolidin-3-yl}methanesulfonamide] and `CS(=O)(=O)N[C@H]1CCCN(C(=O)C2(F)CC2c2ccccc2-c2c(F)cccc2F)C1` (stereo partly drawn) [Example 325, N-{(3S)-1-[(1R,2R)-2-(2′,6′-difluoro[1,1′-biphenyl]-2-yl)-1-fluorocyclopropane-1-carbonyl]piperidin-3-yl}methanesulfonamide, or N-{(3S)-1-[(1S,2S)-2-(2′,6′-difluoro[1,1′-biphenyl]-2-yl)-1-fluorocyclopropane-1-carbonyl]piperidin-3-yl}methanesulfonamide] are the same in “OX2R agonist activity (3 μM, %)” value: 96% for the first, 96% for the second.

First: O=C([C@@H]1C[C@H]1c1ccccc1-c1c(F)cccc1F)N1CC[C@H](NS(=O)(=O)N2CCC2)C1 [Example 326, N-{(3S)-1-[(1R,2R)-2-(2′,6′-difluoro[1,1′-biphenyl]-2-yl)cyclopropane-1-carbonyl]pyrrolidin-3-yl}azetidine-1-sulfonamide]
Second: O=C([C@@H]1C[C@H]1c1ccccc1-c1c(F)cccc1F)N1CC[C@H]1CNS(=O)(=O)N1CCC1 [Example 334, N-({(2S)-1-[(1R,2R)-2-(2′,6′-difluoro[1,1′-biphenyl]-2-yl)cyclopropane-1-carbonyl]azetidin-2-yl}methyl)azetidine-1-sulfonamide]
The “OX2R agonist activity (3 μM, %)” value of the first is lower: 89% for the first, 96% for the second.

Compared with `CS(=O)(=O)N[C@H]1CCN(C(=O)C2C(c3ccccc3-c3c(F)cccc3F)C2(F)F)C1` (stereo partly drawn) [Example 328, N-{(3S)-1-[(1R,3R)-3-(2′,6′-difluoro[1,1′-biphenyl]-2-yl)-2,2-difluorocyclopropane-1-carbonyl]pyrrolidin-3-yl}methanesulfonamide, or N-{(3S)-1-[(1R,3R)-3-(2′,6′-difluoro[1,1′-biphenyl]-2-yl)-2,2-difluorocyclopropane-1-carbonyl]pyrrolidin-3-yl}methanesulfonamide], `CS(=O)(=O)N[C@H]1CCCN(C(=O)C2C(c3ccccc3-c3c(F)cccc3F)C2(F)F)C1` (stereo partly drawn) [Example 330, N-{(3S)-1-[(1R,3R)-3-(2′,6′-difluoro[1,1′-biphenyl]-2-yl)-2,2-difluorocyclopropane-1-carbonyl]piperidin-3-yl}methanesulfonamide, or N-{(3S)-1-[(1S,3S)-3-(2′,6′-difluoro[1,1′-biphenyl]-2-yl)-2,2-difluorocyclopropane-1-carbonyl]piperidin-3-yl}methanesulfonamide] is lower in “OX2R agonist activity (3 μM, %)” value: 94% for the first, 91% for the second.

Going from `CS(=O)(=O)NC1CN(C(=O)[C@@H]2C[C@@]2(F)c2ccccc2-c2c(F)cccc2F)CC1(F)F` (stereo partly drawn) [Example 331, N-{(3R)-1-[(1S,2S)-2-(2′,6′-difluoro[1,1′-biphenyl]-2-yl)-2-fluorocyclopropane-1-carbonyl]-4,4-difluoropyrrolidin-3-yl}methanesulfonamide, or N-{(3S)-1-[(1S,2S)-2-(2′,6′-difluoro[1,1′-biphenyl]-2-yl)-2-fluorocyclopropane-1-carbonyl]-4,4-difluoropyrrolidin-3-yl}methanesulfonamide] to `CS(=O)(=O)N[C@@H]1CN(C(=O)[C@@H]2C[C@@]2(F)c2ccccc2-c2c(F)cccc2F)CCC1(F)F` [Example 333, N-{(3R)-1-[(1S,2S)-2-(2′,6′-difluoro[1,1′-biphenyl]-2-yl)-2-fluorocyclopropane-1-carbonyl]-4,4-difluoropiperidin-3-yl}methanesulfonamide], the “OX2R agonist activity (3 μM, %)” value rises from 96% to 99%.

`CS(=O)(=O)N[C@H]1C[C@H](O)CN(C(=O)[C@@H]2C[C@@]2(F)c2ccccc2-c2c(F)cccc2F)C1` [Example 332, N-{(3S,5S)-1-[(1S,2S)-2-(2′,6′-difluoro[1,1′-biphenyl]-2-yl)-2-fluorocyclopropane-1-carbonyl]-5-hydroxypiperidin-3-yl}methanesulfonamide] was tested, and the “OX2R agonist activity (3 μM, %)” value was 95%.
